Read-outs that look alike come from different tables or passages of the source.
Key:
[1] = biological target: full-length FLAG-tagged B-Raf(V600E) (Homo sapiens (Human), UniProt P15056, V600E); assay: BRAF V600E enzyme assay (TR-FRET competitive displacement of fluorescent tracer); format: binding; conditions: averaged IC50; 60 min at ambient temperature; 11-point dosing, top dose 10 μM
Text: (§1) A competitive displacement assay was configured for B-Raf that monitors the amount of a fluorescently-tagged “tracer” bound to B-Raf via TR-FRET from an anti-tag Eu-labeled antibody also bound to B-Raf.
(§2) [formula] • where: • Xmax Average Uninhibited Controls • Xmin Average Background
(§3) A 4-parameter logistic model was the fit to the POC data for each compound.

BCRP [2] = biological target: T1, BCRP (Homo sapiens (Human), UniProt Q9UNQ0); assay: BCRP MDCKII permeability assay: efflux ratio; conditions: BCRP transfected MDCKII cells; Papp(B−A)/Papp(A−B); test article 1 μM; 2 hours
T1 sequence (Q9UNQ0 whole entry, species assumed): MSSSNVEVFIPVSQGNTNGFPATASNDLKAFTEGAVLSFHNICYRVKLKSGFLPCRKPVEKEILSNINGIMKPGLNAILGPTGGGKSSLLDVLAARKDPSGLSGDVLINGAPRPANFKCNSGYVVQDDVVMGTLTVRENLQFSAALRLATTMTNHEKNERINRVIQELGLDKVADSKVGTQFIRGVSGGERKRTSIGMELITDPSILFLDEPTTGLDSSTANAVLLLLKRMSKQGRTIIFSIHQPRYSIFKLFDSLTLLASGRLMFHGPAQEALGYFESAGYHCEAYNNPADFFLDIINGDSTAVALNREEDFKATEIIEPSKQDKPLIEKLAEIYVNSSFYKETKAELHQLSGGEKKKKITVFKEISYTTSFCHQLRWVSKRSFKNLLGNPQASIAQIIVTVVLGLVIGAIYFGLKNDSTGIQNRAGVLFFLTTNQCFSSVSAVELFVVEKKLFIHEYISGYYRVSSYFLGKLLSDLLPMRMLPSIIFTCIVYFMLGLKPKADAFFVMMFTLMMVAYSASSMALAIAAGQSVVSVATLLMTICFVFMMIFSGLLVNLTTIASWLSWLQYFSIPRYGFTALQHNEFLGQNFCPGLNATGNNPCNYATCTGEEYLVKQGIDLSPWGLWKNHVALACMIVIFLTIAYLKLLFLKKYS
Experimental: (§4) BCRP transfected MDCKII cells were cultured and plated according to manufacturer's recommendations. Assay conditions included with and without the BCRP-specific inhibitor, K0143, at a concentration of 0.3 μM to ascertain the contribution of BCRP to the efflux value of the test compound.
(§5) Both positive and negative controls were used to assess functionality of P-gp or BCRP efflux in the assays. […] Final organic concentration in the assay was 1%. All dosing solutions contained 10 μM lucifer yellow to monitor LLC-PK1 or MDCKII cell monolayer integrity.
(§6) For the apical to basolateral determination (A to B), 75 μL of the test article in transport buffer were added to the apical side of the individual transwells and 250 μL of basolateral media, without compound or lucifer yellow, were added to each well. For the basolateral to apical determination (B to A), 250 μL of test article in transport buffer were added to each well and 75 μL transport buffer, without compound or lucifer yellow, were added to each transwell. All tests were performed in triplicate, and each compound was tested for both apical to basolateral and basolateral to apical transport. The plates were incubated for 2 hours on a Lab-Line Instruments Titer Orbital Shaker (VWR, West Chester, Pa.) at 50 rpm and 37° C. with 5% CO2. All culture plates were removed from the incubator and 50 μL of media were removed from the apical and basolateral portion of each well and added to 150 μL of 1 μM labetalol in 2:1 acetonitrile (acetonitrile): H2O, v/v.
(§7) These values were accepted when found to be below 2% for apical to basolateral and 5% basolateral to apical flux across the MDR1-transfected LLC-PK1 or BCRP-transfected MDCKII cell monolayers. The plates were sealed and the contents of each well analyzed by LC-MS/MS. The compound concentrations were determined from the ratio of the peak areas of the compound to the internal standard (labetalol) in comparison to the dosing solution.
(§8) The LC-MS/MS system was comprised of an HTS-PAL autosampler (Leap Technologies, Carrboro, N.C.), an HP1200 HPLC (Agilent, Palo Alto, Calif.), and a MDS Sciex 4000 Q Trap system (Applied Biosystems, Foster City, Calif.). […] The total run time, including re-equilibration, for a single injection was 1.2 minutes. Mass spectrometric detection of the analytes was accomplished using the ion spray positive mode.
(§9) An efflux ratio is calculated from the mean apical to basolateral (A−B) Papp data and basolateral to apical (B−A) Papp data: Efflux ratio=Papp(B−A)/Papp(A−B)

P-gp (MDR1) [3] = biological target: T2, P-gp (MDR1) (Homo sapiens (Human), UniProt P08183); assay: MDR1 LLC-PK1 permeability assay: efflux ratio; conditions: MDR1 transfected LLC-PK1 cells; Papp(B−A)/Papp(A−B); test article 1 μM; 2 hours
T2 sequence (P08183 whole entry, species assumed): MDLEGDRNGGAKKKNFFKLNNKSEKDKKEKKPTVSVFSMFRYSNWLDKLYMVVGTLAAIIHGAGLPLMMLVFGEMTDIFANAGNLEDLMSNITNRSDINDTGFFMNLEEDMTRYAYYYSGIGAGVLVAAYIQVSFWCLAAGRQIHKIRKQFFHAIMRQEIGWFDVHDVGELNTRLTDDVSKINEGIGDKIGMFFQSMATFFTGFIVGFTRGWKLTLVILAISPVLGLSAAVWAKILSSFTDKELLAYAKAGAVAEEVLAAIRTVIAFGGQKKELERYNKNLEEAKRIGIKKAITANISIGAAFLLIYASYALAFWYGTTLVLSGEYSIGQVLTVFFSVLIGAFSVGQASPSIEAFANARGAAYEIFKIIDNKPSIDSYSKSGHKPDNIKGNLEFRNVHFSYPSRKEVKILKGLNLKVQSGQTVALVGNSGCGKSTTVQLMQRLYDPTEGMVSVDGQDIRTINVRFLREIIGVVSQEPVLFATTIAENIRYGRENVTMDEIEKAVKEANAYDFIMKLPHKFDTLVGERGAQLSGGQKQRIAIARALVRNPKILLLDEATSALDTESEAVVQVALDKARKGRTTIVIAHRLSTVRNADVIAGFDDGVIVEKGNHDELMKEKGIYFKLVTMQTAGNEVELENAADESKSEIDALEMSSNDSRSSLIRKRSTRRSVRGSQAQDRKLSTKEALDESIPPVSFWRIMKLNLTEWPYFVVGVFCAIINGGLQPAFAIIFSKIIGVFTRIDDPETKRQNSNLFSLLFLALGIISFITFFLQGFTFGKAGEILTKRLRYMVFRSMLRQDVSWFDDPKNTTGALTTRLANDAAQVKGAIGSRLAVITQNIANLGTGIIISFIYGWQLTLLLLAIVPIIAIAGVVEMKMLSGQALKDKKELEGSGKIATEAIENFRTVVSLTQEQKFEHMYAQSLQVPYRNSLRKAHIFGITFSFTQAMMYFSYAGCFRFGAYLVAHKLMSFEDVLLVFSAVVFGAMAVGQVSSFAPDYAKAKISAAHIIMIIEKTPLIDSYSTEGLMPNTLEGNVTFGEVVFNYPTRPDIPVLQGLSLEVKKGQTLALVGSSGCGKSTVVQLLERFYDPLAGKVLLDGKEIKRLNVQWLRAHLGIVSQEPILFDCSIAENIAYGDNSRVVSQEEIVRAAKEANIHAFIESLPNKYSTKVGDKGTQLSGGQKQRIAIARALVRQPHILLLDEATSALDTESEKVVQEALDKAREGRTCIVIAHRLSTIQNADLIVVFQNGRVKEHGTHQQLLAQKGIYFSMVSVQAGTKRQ
Experimental: (§10) Both LLC-PK1 and MDR1 transfected LLC-PK1 cells were cultured and plated according to manufacturer's recommendations with the exception that the passage media contained only 2% fetal bovine serum to extend passage time out to seven days.
as §5, §6, §7, §8, §9

[4] = tested on: LLC-PK1 or MDCKII cell monolayer; assay: MDR1 LLC-PK1 and BCRP MDCKII permeability assay: permeability coefficient (Papp); conditions: permeability coefficient Papp; test article 1 μM; 2 hours, 37° C.
[5] = tested on: LLC-PK1 or MDCKII cell monolayer
[6] = tested on: A375-luciferase intracranial tumor xenografts; assay: Intracranial A375-luciferase efficacy and survival mouse tumor model; format: in vivo, female nu/nu NCr mice; conditions: for Survival (# Animals on day 90): n=10
Experimental: Female nu/nu NCr mice from Envigo (Indianapolis, Ind.) were obtained at 5-6 weeks of age and housed in groups of 5. Following a one week minimum acclimation period, mice received orthotopic (i.c.) intracranial injections of 3.0×10^3 A375-luciferase tumor cells suspended in a volume of 10 μL 0.9% sterile Dulbecco's phosphate buffered saline (DPBS) using the top-down approach (Laursen and Belknap, 1986). Seven days post cell implant (Day 1), animals were randomized and sorted into five groups (n=10/group).
Test compounds were given at a dose volume of 10 mL/kg, and vehicles were matched for each group to control for dosing stress, i.e. all groups received twice daily (BID) dose administration by oral gavage (PO) at the relevant dose volumes and schedule shown in Table 9. Tumor growth was monitored by measuring luciferase activity twice per week. Total flux/mouse can vary by an order of magnitude on day 1 of study start (start of dosing). The total flux was normalized per mouse by assigning the first measurement of flux on […] as 100%. Body weight loss as an indicator of tumor progression was determined daily during the dosing interval and then as needed (at least once weekly). Survival was evaluated through day 90 (30 days post-dosing cessation).

BCRP [7] = conditions: reported in the literature; cited from earlier work
P-gp (MDR1) [8] = biological target: T2, P-gp (MDR1); conditions: pig, LLC-PK1, 2 h, 1 µM
Experimental: as §10, §5, §6, §7, §8, §9

BCRP [9] = biological target: T1, BCRP; conditions: dog, 2 h, 1 µM
Experimental: as §4, §5, §6, §7, §8, §9

[10] = biological target: N-terminally GST-tagged B-Raf(V600K) (Homo sapiens, UniProt P15056, V600K); assay: BRAF V600K enzyme assay (TR-FRET competitive displacement of fluorescent tracer); format: binding; conditions: averaged IC50; 60 min at ambient temperature; 11-point dosing, top dose 10 μM
N-terminally GST-tagged B-Raf(V600K), sequence (P15056 2-766 V600K limits assumed): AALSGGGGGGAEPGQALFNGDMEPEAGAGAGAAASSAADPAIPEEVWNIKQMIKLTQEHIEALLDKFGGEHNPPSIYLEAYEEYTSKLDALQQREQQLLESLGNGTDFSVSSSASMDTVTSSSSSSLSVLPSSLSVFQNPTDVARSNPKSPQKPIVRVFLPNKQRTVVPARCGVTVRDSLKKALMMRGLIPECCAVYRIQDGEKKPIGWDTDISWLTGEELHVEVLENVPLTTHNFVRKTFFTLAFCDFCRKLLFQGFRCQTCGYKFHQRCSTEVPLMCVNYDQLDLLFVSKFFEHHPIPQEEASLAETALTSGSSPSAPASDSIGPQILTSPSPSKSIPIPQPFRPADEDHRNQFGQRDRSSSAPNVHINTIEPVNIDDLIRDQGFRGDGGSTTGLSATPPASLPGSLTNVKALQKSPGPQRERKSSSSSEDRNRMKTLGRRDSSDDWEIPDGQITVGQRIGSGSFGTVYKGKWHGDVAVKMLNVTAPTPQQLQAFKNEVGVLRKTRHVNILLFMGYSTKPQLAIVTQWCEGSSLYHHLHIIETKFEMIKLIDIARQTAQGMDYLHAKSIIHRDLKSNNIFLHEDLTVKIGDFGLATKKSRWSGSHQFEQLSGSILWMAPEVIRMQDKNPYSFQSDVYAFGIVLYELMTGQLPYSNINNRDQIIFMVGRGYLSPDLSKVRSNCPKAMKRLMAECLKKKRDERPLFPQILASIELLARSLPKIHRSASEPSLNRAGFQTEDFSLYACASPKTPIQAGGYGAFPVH
Text: as §1, §2, §3

[11] = PK (free brain-to-free plasma ratio) (mouse); format: in vivo; conditions: unbound brain-to-unbound plasma concentration ratio; male CD-1 mice; oral gavage 10 mg/kg; sampling 2-24 hours
Experimental: PK (Free Brain-to-Free Plasma Ratio) (Mouse)
The ability of representative compounds to penetrate the BBB in mice was determined by evaluating the unbound brain-to-unbound plasma (also referred to as free brain-to-free plasma) concentration ratio in male CD-1 mice.
Brain samples were stored at −20±5° C. prior to analysis. Concentrations of test compound in mouse brain homogenate were determined by liquid chromatography tandem mass spectrometry (LC-MS/MS) following protein precipitation with acetonitrile. A 12-point calibration curve, ranging from 0.5 to 10,000 ng/mL, was prepared in duplicate. A solution of 400 μg/mL of test compound in dimethyl sulfoxide (DMSO) was serially diluted (3-fold) in 100% DMSO, and then 2.5 μL of each standard solution was added to 100 μL of naïve male CD-1 mice brain homogenate. To mimic the extraction in the standard curve, 2.5 μL of DMSO was added to all test samples. Both calibration and test brain homogenate samples were spiked with 10 μL of an IS (1 μg/mL of a structural analog). Brain homogenate was generated by adding 0.75 mL of 4:1 water:MeOH to each brain sample followed by homogenization for 1 minute with bead beater tubes a 6 m/s using an MP Fast Prep-24®. Proteins were precipitated from 100 μL of brain homogenate sample by the addition of 300 μL of acetonitrile. […] A 100 μL aliquot of each supernatant was transferred via a 550 μL Personal Pipettor (Apricot Designs, Monrovia, Calif.) to 96-well plates and diluted 1:1 with HPLC grade water. The resulting plates were sealed with aluminum for LC-MS/MS analysis.
Brain-to-plasma ratios were calculated using the concentration of compound measured in the brain divided by the concentration of compound measured in the plasma. Brain-to-plasma ratios were always generated from a single animal and time point. Free brain-to-free plasma ratios were calculated by multiplying the brain-to-plasma ratio by the in vitro brain homogenate free fraction divided by the in vitro plasma free fraction using the following equation: (B/P)*(Bfu/Pfu).

full-length FLAG-tagged B-Raf(V600E), sequence (P15056 whole entry V600E): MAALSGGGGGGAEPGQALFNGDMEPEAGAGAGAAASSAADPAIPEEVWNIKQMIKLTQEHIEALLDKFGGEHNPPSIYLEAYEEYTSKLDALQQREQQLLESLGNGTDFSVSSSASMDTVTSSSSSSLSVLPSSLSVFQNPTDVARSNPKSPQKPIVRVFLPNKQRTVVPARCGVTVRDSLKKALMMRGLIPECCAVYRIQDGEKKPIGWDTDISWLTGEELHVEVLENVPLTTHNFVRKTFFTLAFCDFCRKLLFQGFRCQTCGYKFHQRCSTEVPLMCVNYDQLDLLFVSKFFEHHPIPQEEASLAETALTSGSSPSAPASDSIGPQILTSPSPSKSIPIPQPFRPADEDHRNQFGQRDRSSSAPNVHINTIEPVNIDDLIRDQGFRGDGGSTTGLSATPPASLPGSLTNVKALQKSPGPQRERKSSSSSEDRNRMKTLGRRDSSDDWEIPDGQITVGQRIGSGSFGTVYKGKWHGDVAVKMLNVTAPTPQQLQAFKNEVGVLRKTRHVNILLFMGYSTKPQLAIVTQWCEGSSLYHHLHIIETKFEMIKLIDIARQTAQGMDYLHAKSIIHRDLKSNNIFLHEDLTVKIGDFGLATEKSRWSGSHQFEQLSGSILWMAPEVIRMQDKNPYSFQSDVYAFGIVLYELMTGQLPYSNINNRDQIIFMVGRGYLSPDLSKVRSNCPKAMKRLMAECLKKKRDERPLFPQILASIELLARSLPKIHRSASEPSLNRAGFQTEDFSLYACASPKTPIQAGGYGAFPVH

Molecule | IC50 [1] [nM] | BCRP efflux ratio (BCRP [2]) | MDR1 efflux ratio (P-gp (MDR1) [3]) | Permeability [4] | other results
1-cyclopropyl-N-(4-((3,5-dimethyl-4-oxo-3,4-dihydroquinazolin-6-yl)amino)-3,5-difluoropyridin-2-yl)methanesulfonamide [Example 42] | 60.3 | 23.73 | 5.26 | 18.35 *10^−6 cm/s | –
CCCS(=O)(=O)Nc1cc(Cl)cc(Nc2ccc3ncn(C)c(=O)c3c2C)c1Cl [Example 48, N-(2,5-dichloro-3-((3,5-dimethyl-4-oxo-3,4-dihydroquinazoli-6-yl)amino)phenyl)propane-1-sulfonamide] | 3 | – | – | – | Permeability [5]: 25.83 *10^−6 cm/s
CCCS(=O)(=O)Nc1cccc(Nc2ccc3ncn(C)c(=O)c3c2C)c1C#N [Example 53, N-(2-cyano-3-((3,5-dimethyl-4-oxo-3,4-dihdyroquinazolin-6-yl)amino)phenyl)propane-1-sulfonamide] | 9.4 | – | – | – | Permeability [5]: 27.13 *10^−6 cm/s
CCN(C)S(=O)(=O)Nc1ccc(F)c(Nc2ccc3ncn(C)c(=O)c3c2C)c1Cl [Example 54, N-(2-chloro-3-((3,5-dimethyl-4-oxo-3,4-dihydroquinazolin-6-yl)amino)-4-fluorophenyl)-N-ethyl-N-methylamino-1-sulfonamide] | 188 | – | – | – | Permeability [5]: 35.81 *10^−6 cm/s
Cc1c(Nc2c(F)ccc(NS(=O)(=O)CCCF)c2Cl)ccc2ncn(C)c(=O)c12 [Example 82, N-(2-chloro-3-((3,5-dimethyl-4-oxo-3,4-dihydroquinazolin-6-yl)amino)-4-fluorophenyl)-3-fluoropropane-1-sulfonamide] | – | – | – | – | Survival (# Animals on day 90) ([6]; Example 82 10 mg/kg BID PO 60 days): 6/10; Survival (# Animals on day 90) ([6]; Example 82 30 mg/kg BID PO 60 days): 6/10; efficacy as a single agent in the model ([6]; both doses employed (10 and 30 mg/kg BID PO)): highly effective; effect on tumor growth (total bioluminescence, FIG. 15) ([6]; single agent, BID for 60 consecutive days PO): significant effect
CC(C)(C)c1nc(-c2cccc(NS(=O)(=O)c3c(F)cccc3F)c2F)c(-c2ccnc(N)n2)s1 [dabrafenib] | – | – | – | – | BCRP efflux ratio (BCRP [7]): 21.0
CCCS(=O)(=O)Nc1ccc(F)c(C(=O)c2c[nH]c3ncc(-c4ccc(Cl)cc4)cc23)c1F [vemurafenib] | – | – | – | – | BCRP efflux ratio (BCRP [7]): 495
N-(2-chloro-3-((3,5-dimethyl-4-oxo-3,4-dihydroquinazolin-6-yl)amino)-4-fluorophenyl)-1-cyclopropylmethanesulfonamide [Example 50] | 66.1 | 1.13 | 1.54 | 21.88 *10^−6 cm/s | –
N-(2-chloro-3-((3,5-dimethyl-4-oxo-3,4-dihydroquinazolin-6-yl)amino)-4-fluorophenyl)-2-methylpropane-1-sulfonamide [Example 51] | 63.4 | 1.28 | 1.64 | 27.16 *10^−6 cm/s | –
N-(2-chloro-3-((3,5-dimethyl-4-oxo-3,4-dihydroquinazolin-6-yl)amino)-4-fluorophenyl)ethanesulfonamide [Example 52] | 226 | 1.28 | 1.76 | 28.91 *10^−6 cm/s | –
N-(3-((3,5-dimethyl-4-oxo-3,4-dihydroquinazolin-6-yl)amino)-2-fluoro-5-methylphenyl)propane-1-sulfonamide [Example 46] | 148 | – | – | – | Permeability ([5]; 2 h, 1 µM): 30.74 *10^−6 cm/s; MDR1 efflux ratio (P-gp (MDR1) [8]): 1.43; BCRP efflux ratio (BCRP [9]): 1.48
N-(3-chloro-4-((3,5-dimethyl-4-oxo-3,4-dihydroquinazolin-6-yl)amino)-5-fluoropyridin-2-yl)-1-cyclopropylmethanesulfonamide [Example 47] | 41.7 | 7.93 | 1.84 | 25.7 *10^−6 cm/s | –
N-(3-chloro-4-((3,5-dimethyl-4-oxo-3,4-dihydroquinazolin-6-yl)amino)-5-fluoropyridin-2-yl)ethanesulfonamide [Example 45] | 137 | 11.29 | 2.47 | 16.56 *10^−6 cm/s | –
N-(3-chloro-4-((3,5-dimethyl-4-oxo-3,4-dihydroquinazolin-6-yl)oxy)-5-fluoropyridin-2-yl)propane-1-sulfonamide [Example 63] | 2.8 | – | – | – | IC50 [10]: 2.4 nM; B/P ratio (free) [11]: 0.34-0.4; Permeability ([5]; 2 h, 1 µM): 26.09 *10^−6 cm/s; MDR1 efflux ratio (P-gp (MDR1) [8]): 1.3; BCRP efflux ratio (BCRP [9]): 7.7
N-(4-((3,5-dimethyl-4-oxo-3,4-dihydroquinazolin-6-yl)amino)-3,5-difluoropyridin-2-yl)ethanesulfonamide [Example 43] | 260 | 26.02 | 5.24 | 8.75 *10^−6 cm/s | –
N-{2-chloro-3-[(3,5-dimethyl-4-oxo-3,4-dihydroquinazolin-6-yl)oxy]-4-fluorophenyl}propane-1-sulfonamide [Example 55] | 5.4 | – | – | – | IC50 [10]: 3.1 nM; B/P ratio (free) [11]: 0.46-0.51; MDR1 efflux ratio (P-gp (MDR1) [8]): 1.1; BCRP efflux ratio (BCRP [9]): 0.83

Reference: US11414404B2, “Compounds for the treatment of BRAF-associated diseases and disorders” (Array BioPharma Inc., priority 2019, dated 2022)
